{
  "source": "paper PMC7377239",
  "about": "“Cardiovascular Effects of Polychlorinated Biphenyls and Their Major Metabolites” (Environmental Health Perspectives, 2020)",
  "key": {"[1]": {"tested_on": "iCell endothelial cells (human iPSC-derived ECs)", "assay": "High-content imaging cytotoxicity in iCell endothelial cells, 24 h", "format": "cell-based", "details": "Homo sapiens, Endothelial cell, 24 hr; for viability at 0.1 µM / activity at 0.1 µM: 0.10 µM", "how_it_was_run": "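Readouts were vehicle-normalised and fitted to a four-parameter logistic model. POD was set at one SD beyond 0.5% DMSO control means, and 100 µM was assigned when no response was seen. Cells were monolayers of iCell endothelial cells imaged after 24 h compound exposure using nuclear, mitochondrial and calcein dyes.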"}, "[2]": {"tested_on": "iCell endothelial cells (human iPSC-derived ECs)", "assay": "Tube formation (tubulogenesis) assay in iCell endothelial cells, 18 h", "format": "cell-based", "details": "Homo sapiens, Endothelial cell, 18 hr; for activity at 0.1 µM: 0.10 µM", "how_it_was_run": "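Tube formation was measured by calcein AM imaging after overnight compound exposure (37°C, 0.5% DMSO vehicle) of human iPSC-derived ECs, 7,500/well, on reduced-growth-factor Geltrex in starvation medium. Vehicle-normalized data fitted to four-parameter logistic; POD set at one vehicle SD; without response, 100 μM taken as NOAEL.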"}, "[3]": {"details": "iPSC-EC, 0.00 µM control = 100.00, read-out: endo.cyto.24hr"}, "[4]": {"details": "iPSC-EC, 0.00 µM control = 100.00, read-out: endo.mito.24hr"}, "[5]": {"details": "iPSC-EC, 0.00 µM control = 100.00, read-out: endo.mitoint.24hr"}, "[6]": {"details": "iPSC-EC, 0.00 µM control = 100.00, read-out: endo.nma.24hr"}, "[7]": {"details": "iPSC-EC, 0.00 µM control = 100.00, read-out: endo.tc.24hrs"}, "[8]": {"details": "iPSC-EC tube formation, 0.00 µM control = 100.00, read-out: endo.mtl.18hr"}, "[9]": {"details": "iPSC-EC tube formation, 0.00 µM control = 100.00, read-out: endo.tlps.18hr"}, "[10]": {"details": "iPSC-EC tube formation, 0.00 µM control = 100.00, read-out: endo.tta.18hr"}, "[11]": {"details": "iPSC-EC tube formation, 0.00 µM control = 100.00, read-out: endo.ttl.18hr"}, "[12]": {"details": "endothelial cells (endo), cyto, read-out: POD endo.cyto.24hr"}, "[13]": {"details": "endothelial cells (endo), mito, read-out: POD endo.mito.24hr"}, "[14]": {"details": "endothelial cells (endo), mitoint, read-out: POD endo.mitoint.24hr"}, "[15]": {"details": "endothelial cells (endo), nma, read-out: POD endo.nma.24hr"}, "[16]": {"details": "endothelial cells (endo), tc, read-out: POD endo.tc.24hr"}, "[17]": {"details": "endothelial cells (endo), tube formation mtl, read-out: POD endo.mtl.18hr"}, "[18]": {"details": "endothelial cells (endo), tube formation tlps, read-out: POD endo.tlps.18hr"}, "[19]": {"details": "endothelial cells (endo), tube formation tta, read-out: POD endo.tta.18hr"}, "[20]": {"details": "endothelial cells (endo), tube formation ttl, read-out: POD endo.ttl.18hr"}},
  "note": "Structures can show the parent of a compound that is named as a salt. Where two headings read alike, the source gives them in different places.",
  "data": [
    {"smiles": "Oc1cccc(-c2ccc(Cl)cc2)c1", "note": "[3'-OH PCB3]", "values": [
      {"measurement": "viability at 0.01 µM", "setting": "[1]; [3]", "value": 93.4, "unit": "%"},
      {"measurement": "activity at 0.01 µM", "setting": "[1]; [4]", "value": 93.6, "unit": "%"},
      {"measurement": "activity at 0.01 µM", "setting": "[1]; [5]", "value": 123, "unit": "%"},
      {"measurement": "activity at 0.01 µM", "setting": "[1]; [6]", "value": 101, "unit": "%"},
      {"measurement": "viability at 0.01 µM", "setting": "[1]; [7]", "value": 93.4, "unit": "%"},
      {"measurement": "viability at 0.1 µM", "setting": "[1]; [3]", "value": 99.8, "unit": "%"},
      {"measurement": "activity at 0.1 µM", "setting": "[1]; [4]", "value": 100, "unit": "%"},
      {"measurement": "activity at 0.1 µM", "setting": "[1]; [5]", "value": 111, "unit": "%"},
      {"measurement": "activity at 0.1 µM", "setting": "[1]; [6]", "value": 97.6, "unit": "%"},
      {"measurement": "viability at 0.1 µM", "setting": "[1]; [7]", "value": 99.8, "unit": "%"},
      {"measurement": "viability at 1 µM", "setting": "[1]; [3]", "value": 98.9, "unit": "%"},
      {"measurement": "activity at 1 µM", "setting": "[1]; [4]", "value": 99.4, "unit": "%"},
      {"measurement": "activity at 1 µM", "setting": "[1]; [5]", "value": 118, "unit": "%"},
      {"measurement": "activity at 1 µM", "setting": "[1]; [6]", "value": 97.4, "unit": "%"},
      {"measurement": "viability at 1 µM", "setting": "[1]; [7]", "value": 98.9, "unit": "%"},
      {"measurement": "viability at 10 µM", "setting": "[1]; [3]", "value": 102, "unit": "%"},
      {"measurement": "activity at 10 µM", "setting": "[1]; [4]", "value": 102, "unit": "%"},
      {"measurement": "activity at 10 µM", "setting": "[1]; [5]", "value": 129, "unit": "%"},
      {"measurement": "activity at 10 µM", "setting": "[1]; [6]", "value": 98.3, "unit": "%"},
      {"measurement": "viability at 10 µM", "setting": "[1]; [7]", "value": 102, "unit": "%"},
      {"measurement": "viability at 100 µM", "setting": "[1]; [3]", "value": 45.2, "unit": "%"},
      {"measurement": "activity at 100 µM", "setting": "[1]; [4]", "value": 58, "unit": "%"},
      {"measurement": "activity at 100 µM", "setting": "[1]; [5]", "value": 98.4, "unit": "%"},
      {"measurement": "activity at 100 µM", "setting": "[1]; [6]", "value": 90.1, "unit": "%"},
      {"measurement": "viability at 100 µM", "setting": "[1]; [7]", "value": 79.2, "unit": "%"},
      {"measurement": "minimal effective concentration", "setting": "[1]; iPSC-EC, top concentration 100.00 µM, read-out: endo.cyto.24hr POD", "value": 45.8, "unit": "µM"},
      {"measurement": "minimal effective concentration", "setting": "[1]; iPSC-EC, top concentration 100.00 µM, read-out: endo.mito.24hr POD", "value": 45.8, "unit": "µM"},
      {"measurement": "minimal effective concentration", "setting": "[1]; iPSC-EC, top concentration 100.00 µM, read-out: endo.mitoint.24hr POD", "value": 100, "unit": "µM"},
      {"measurement": "minimal effective concentration", "setting": "[1]; iPSC-EC, top concentration 100.00 µM, read-out: endo.nma.24hr POD", "value": 9.75, "unit": "µM"},
      {"measurement": "minimal effective concentration", "setting": "[1]; iPSC-EC, top concentration 100.00 µM, read-out: endo.tc.24hrs POD", "value": 53.2, "unit": "µM"},
      {"measurement": "activity at 0.01 µM", "setting": "[2]; [8]", "value": 98, "unit": "%"},
      {"measurement": "activity at 0.01 µM", "setting": "[2]; [9]", "value": 99.3, "unit": "%"},
      {"measurement": "activity at 0.01 µM", "setting": "[2]; [10]", "value": 119, "unit": "%"},
      {"measurement": "activity at 0.01 µM", "setting": "[2]; [11]", "value": 114, "unit": "%"},
      {"measurement": "activity at 0.1 µM", "setting": "[2]; [8]", "value": 85.4, "unit": "%"},
      {"measurement": "activity at 0.1 µM", "setting": "[2]; [9]", "value": 107, "unit": "%"},
      {"measurement": "activity at 0.1 µM", "setting": "[2]; [10]", "value": 73, "unit": "%"},
      {"measurement": "activity at 0.1 µM", "setting": "[2]; [11]", "value": 72.3, "unit": "%"},
      {"measurement": "activity at 1 µM", "setting": "[2]; [8]", "value": 88.6, "unit": "%"},
      {"measurement": "activity at 1 µM", "setting": "[2]; [9]", "value": 76.7, "unit": "%"},
      {"measurement": "activity at 1 µM", "setting": "[2]; [10]", "value": 71.5, "unit": "%"},
      {"measurement": "activity at 1 µM", "setting": "[2]; [11]", "value": 69.4, "unit": "%"},
      {"measurement": "activity at 10 µM", "setting": "[2]; [8]", "value": 59, "unit": "%"},
      {"measurement": "activity at 10 µM", "setting": "[2]; [9]", "value": 33.8, "unit": "%"},
      {"measurement": "activity at 10 µM", "setting": "[2]; [10]", "value": 39.4, "unit": "%"},
      {"measurement": "activity at 10 µM", "setting": "[2]; [11]", "value": 39.8, "unit": "%"},
      {"measurement": "activity at 100 µM", "setting": "[2]; [8]", "value": 46, "unit": "%"},
      {"measurement": "activity at 100 µM", "setting": "[2]; [9]", "value": 11.7, "unit": "%"},
      {"measurement": "activity at 100 µM", "setting": "[2]; [10]", "value": 1.49, "unit": "%"},
      {"measurement": "activity at 100 µM", "setting": "[2]; [11]", "value": 2.14, "unit": "%"},
      {"measurement": "minimal effective concentration", "setting": "[2]; iPSC-EC tube formation, top concentration 100.00 µM, read-out: endo.mtl.18hr POD", "value": 0.36, "unit": "µM"},
      {"measurement": "minimal effective concentration", "setting": "[2]; iPSC-EC tube formation, top concentration 100.00 µM, read-out: endo.tlps.18hr POD", "value": 1.03, "unit": "µM"},
      {"measurement": "minimal effective concentration", "setting": "[2]; iPSC-EC tube formation, top concentration 100.00 µM, read-out: endo.tta.18hr POD", "value": 0.49, "unit": "µM"},
      {"measurement": "minimal effective concentration", "setting": "[2]; iPSC-EC tube formation, top concentration 100.00 µM, read-out: endo.ttl.18hr POD", "value": 0.51, "unit": "µM"}
    ]},
    {"smiles": "Oc1cccc(-c2ccc(Cl)cc2)c1", "note": "[3'-OH-PCB 3]", "values": [
      {"measurement": "minimal effective concentration", "setting": "[1]; [12]", "value": 45.8, "unit": "µM"},
      {"measurement": "minimal effective concentration", "setting": "[1]; [13]", "value": 45.8, "unit": "µM"},
      {"measurement": "minimal effective concentration", "setting": "[1]; [14]", "value": 100, "unit": "µM"},
      {"measurement": "minimal effective concentration", "setting": "[1]; [15]", "value": 9.75, "unit": "µM"},
      {"measurement": "minimal effective concentration", "setting": "[1]; [16]", "value": 53.2, "unit": "µM"},
      {"measurement": "minimal effective concentration", "setting": "[2]; [17]", "value": 0.36, "unit": "µM"},
      {"measurement": "minimal effective concentration", "setting": "[2]; [18]", "value": 1.03, "unit": "µM"},
      {"measurement": "minimal effective concentration", "setting": "[2]; [19]", "value": 0.49, "unit": "µM"},
      {"measurement": "minimal effective concentration", "setting": "[2]; [20]", "value": 0.51, "unit": "µM"}
    ]},
    {"smiles": "O=S(=O)(O)Oc1cccc(-c2ccc(Cl)cc2)c1", "note": "[3'-PCB 3 sulfate]", "values": [
      {"measurement": "minimal effective concentration", "setting": "[1]; [12]", "value": 100, "unit": "µM"},
      {"measurement": "minimal effective concentration", "setting": "[1]; [13]", "value": 100, "unit": "µM"},
      {"measurement": "minimal effective concentration", "setting": "[1]; [14]", "value": 100, "unit": "µM"},
      {"measurement": "minimal effective concentration", "setting": "[1]; [15]", "value": 100, "unit": "µM"},
      {"measurement": "minimal effective concentration", "setting": "[1]; [16]", "value": 100, "unit": "µM"},
      {"measurement": "minimal effective concentration", "setting": "[2]; [17]", "value": 0.58, "unit": "µM"},
      {"measurement": "minimal effective concentration", "setting": "[2]; [18]", "value": 38.6, "unit": "µM"},
      {"measurement": "minimal effective concentration", "setting": "[2]; [19]", "value": 11.6, "unit": "µM"},
      {"measurement": "minimal effective concentration", "setting": "[2]; [20]", "value": 8.75, "unit": "µM"}
    ]}
  ]
}
